Assay results: patent publication US8765786B2, “1-substituted indazole derivative” (Dainippon Sumitomo Pharma Co., Ltd., priority 2012, dated 2014)

Molecular target: T1, human α7 nAChR (Homo sapiens, UniProt P36544)
T1 construct: expressed in transfected cells; host or cells: GH4C1 cells derived from rat pituitary (ATCC CCL-82.2)
Test: Evaluation of PAM activity with human α7 nACh receptor stably expressing cells (aequorin luminescence, FDSS7000)
Type: cell-based
Details: test compound 10 μmol/L, ACh added at EC20, ratio of RLU (Max-Min) of test wells to control wells; for activity at 10 µM: read-out: α7PAM (%) @ 10 μmol/L
In short: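 PAM activity defined as RLU (Max-Min) of compound wells over control wells, from 465 nm aequorin luminescence tracked 138 s after ACh challenge. Host: GH4C1 (rat pituitary) stably co-expressing human α7 nAChR and aequorin, pre-loaded 4 h with 4 μmol/L luminescent substrate.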

T1 sequence (P36544 23-502): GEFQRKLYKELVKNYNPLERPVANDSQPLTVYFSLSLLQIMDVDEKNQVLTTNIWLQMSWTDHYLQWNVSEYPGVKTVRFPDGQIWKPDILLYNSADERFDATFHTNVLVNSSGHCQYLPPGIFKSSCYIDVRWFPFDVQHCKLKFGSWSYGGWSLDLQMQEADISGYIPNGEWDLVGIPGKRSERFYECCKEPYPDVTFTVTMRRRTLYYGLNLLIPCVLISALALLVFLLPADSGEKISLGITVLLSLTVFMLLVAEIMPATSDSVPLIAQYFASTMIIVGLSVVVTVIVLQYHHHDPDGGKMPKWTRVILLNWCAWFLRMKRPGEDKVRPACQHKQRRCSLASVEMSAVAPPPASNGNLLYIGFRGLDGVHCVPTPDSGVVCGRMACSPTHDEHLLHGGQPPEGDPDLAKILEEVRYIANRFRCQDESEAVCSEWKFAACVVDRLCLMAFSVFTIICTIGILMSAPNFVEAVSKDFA

Compound	α7PAM (%) @ 10 μmol/L	activity at 10 µM
COC(C)c1c(C)ccc2c1cnn2C1CCN(C(=O)N[C@H]2CC[C@H](OC)CC2)CC1 (some centres unmarked) [Example 233]	307%	
CCOc1ccc2c(cnn2C2CCN(C(=O)NC3CCC(COC)CC3)CC2)c1 (centres unmarked) [Example 234]	824%	
COCC1CCC(NC(=O)N2CCC(n3ncc4cc(OC(C)C)ccc43)CC2)CC1 (centres unmarked) [Example 235]	611%	
COCC1CCC(NC(=O)N2CCC(n3ncc4cc(F)ccc43)CC2)CC1 (centres unmarked) [Example 236]	331%	
COCC1CCC(NC(=O)N2CCC(n3ncc4cc(Cl)ccc43)CC2)CC1 (centres unmarked) [Example 237]	832%	
COCC1CCC(NC(=O)N2CCC(n3ncc4cc(Br)ccc43)CC2)CC1 (centres unmarked) [Example 238]	1031%	
COCCc1ccc2c(cnn2C2CCN(C(=O)NC3CCC(F)(F)CC3)CC2)c1 [Example 239]	485%	
CCc1nn(C2CCN(C(=O)N[C@H]3CC[C@H](OC)CC3)CC2)c2ccc(OC)cc12 [Example 240]	833%	
CCc1nn(C2CCN(C(=O)NC3CCC(F)(F)CC3)CC2)c2ccc(OC)cc12 [Example 241]	358%	
COc1ccc2c(c1)c(C)nn2C1CCN(C(=O)N[C@H]2CC[C@H](OC)CC2)CC1 [Example 242]	901%	
COc1ccc2c(c1)c(C)nn2C1CCN(C(=O)NC2CCC(F)(F)CC2)CC1 [Example 243]	842%	
CCc1nn(C2CCN(C(=O)NC3CCOCC3)CC2)c2ccc(OC)cc12 [Example 244]	324%	
COC(C)c1ccc2c(cnn2C2CCN(C(=O)N[C@H]3CC[C@H](OC)CC3)CC2)c1 (some centres unmarked) [Example 245]	182%	
COC1CC1c1ccc2c(cnn2C2CCN(C(=O)N[C@H]3CC[C@H](OC)CC3)CC2)c1 (some centres unmarked) [Example 246]	364%	
COC(C)Cc1ccc2c(cnn2C2CCN(C(=O)N[C@H]3CC[C@H](OC)CC3)CC2)c1 (some centres unmarked) [Example 247]	353%	
COC1CC1c1ccc2c(cnn2C2CCN(C(=O)NC3CCC(F)(F)CC3)CC2)c1 (centres unmarked) [Example 248]	851%	
O=C(NC1CCC(F)(F)CC1)N1CCC(n2ncc3c(OC4CC4)cccc32)CC1 [Example 250]	1215%	
COC(C)Cc1ccc2c(cnn2C2CCN(C(=O)NC3CCC(F)(F)CC3)CC2)c1 (centres unmarked) [Example 251]	868%	
COCC(C)c1ccc2c(cnn2C2CCN(C(=O)NC3CCC(F)(F)CC3)CC2)c1 (centres unmarked) [Example 252]	364%	
CCc1ccc2c(cnn2C2CCN(C(=O)NC3CCC(F)(F)CC3)CC2)c1OC [Example 256]	1668%	
COc1ccc2c(c1)c(C1CC1)nn2C1CCN(C(=O)N[C@H]2CC[C@H](OC)CC2)CC1 [Example 257]	801%	
COc1ccc2c(c1)c(C1=CCOCC1)nn2C1CCN(C(=O)NC2CCC(F)(F)CC2)CC1 [Example 259]	309%	

Compound	α7PAM (%) @ 10 μmol/L	activity at 10 µM
COc1ccc2c(c1)c(C1=CCOCC1)nn2C1CCN(C(=O)N[C@H]2CC[C@H](OC)CC2)CC1 [Example 260]	428%	
COc1ccc2c(c1)c(C1CCOCC1)nn2C1CCN(C(=O)NC2CCC(F)(F)CC2)CC1 [Example 261]	924%	
COc1ccc2c(c1)c(C1CCOCC1)nn2C1CCN(C(=O)N[C@H]2CC[C@H](OC)CC2)CC1 [Example 262]	348%	
COc1c(C2CC2)ccc2c1cnn2C1CCN(C(=O)N[C@H]2CC[C@H](OC)CC2)CC1 [Example 263, 4-(5-cyclopropyl-4-methoxy-1H-indazol-1-yl)-N-(trans-4-methoxycyclohexyl)piperidine-1-carboxamide]		749%
COc1nn(C2CCN(C(=O)NC3CCOCC3)CC2)c2ccc(OC(F)(F)F)cc12 [Example 264]	263%	
CCOc1nn(C2CCN(C(=O)NC3CCOCC3)CC2)c2ccc(OC(F)(F)F)cc12 [Example 265]	181%	
COc1nn(C2CCN(C(=O)NC3CCOCC3)CC2)c2ccc(C(F)(F)F)cc12 [Example 266]	448%	
CCOc1nn(C2CCN(C(=O)NC3CCOCC3)CC2)c2ccc(C(F)(F)F)cc12 [Example 267]	292%	
COc1c(C)ccc2c1cnn2C1CCN(C(=O)NC2CCOCC2)CC1 [Example 268]	361%	
CCOc1c(C)ccc2c1cnn2C1CCN(C(=O)NC2CCC(F)(F)CC2)CC1 [Example 269]	835%	
COc1nn(C2CCN(C(=O)NC3CCC(F)(F)CC3)CC2)c2ccc(C)cc12 [Example 270]	364%	
CCOc1c(CC)ccc2c1cnn2C1CCN(C(=O)NC2CCC(F)(F)CC2)CC1 [Example 271]	931%	
CCOc1c(CC)ccc2c1cnn2C1CCN(C(=O)N[C@H]2CC[C@H](OC)CC2)CC1 [Example 272, 4-(4-ethoxy-5-ethyl-1H-indazol-1-yl)-N-(trans-4-methoxycyclohexyl)piperidine-1-carboxamide]		442%
CCOc1c(C)ccc2c1cnn2C1CCN(C(=O)NC2CCOCC2)CC1 [Example 273]	341%	
CCOc1c(CC)ccc2c1cnn2C1CCN(C(=O)NC2CCOCC2)CC1 [Example 274]	618%	
Cc1c(C2CC2)ccc2c1cnn2C1CCN(C(=O)NC2CCC(F)(F)CC2)CC1 [Example 276]	1351%	
CO[C@H]1CC[C@H](NC(=O)N2CCC(n3ncc4c(C)c(C5CC5)ccc43)CC2)CC1 [Example 277, 4-(5-cyclopropyl-4-methyl-1H-indazol-1-yl)-N-(trans-4-methoxycyclohexyl)piperidine-1-carboxamide]		729%
COc1ccc2c(cnn2C2CCN(C(=O)NC3CCC(F)(F)CC3)CC2)c1C [Example 278]	861%	
COc1ccc2c(cnn2C2CCN(C(=O)N[C@H]3CC[C@H](OC)CC3)CC2)c1C [Example 279]	185%	
[2H]C([2H])([2H])O[C@H]1CC[C@H](NC(=O)N2CCC(n3ncc4cc(C)ccc43)CC2)CC1 [Example 295, 4-(5-methyl-1H-indazol-1-yl)-N-{trans-4-[(^2H3)methoxy]cyclohexyl}piperidine-1-carboxamide]	1143%	
[2H]C([2H])([2H])O[C@H]1CC[C@H](NC(=O)N2CCC(n3ncc4cc(C5CC5)ccc43)CC2)CC1 [Example 296, 4-(5-cyclopropyl-1H-indazol-1-yl)-N-{trans-4-[(^2H3)methoxy]cyclohexyl}piperidine-1-carboxamide]	1268%	

Other lines, results leading:

α7PAM (%) @ 10 μmol/L	activity at 10 µM	Compound
299%		COc1ccc2c(cnn2C2CCN(C(=O)NC3CCC(F)(F)CC3)CC2)c1C1CC1 [Example 280]
197%		CCOc1ccc2c(cnn2C2CCN(C(=O)NC3CCC(F)(F)CC3)CC2)c1C [Example 281]
215%		CCOc1ccc2c(cnn2C2CCN(C(=O)N[C@H]3CC[C@H](OC)CC3)CC2)c1C [Example 282]
	845%	Cc1c(C2CC2)ccc2c1cnn2C1CCN(C(=O)NC2CCOCC2)CC1 [Example 283, 4-(5-cyclopropyl-4-methyl-1H-indazol-1-yl)-N-(tetrahydro-2H-pyran-4-yl)piperidine-1-carboxamide]
1109%		COc1c(Br)ccc2c1cnn2C1CCN(C(=O)NC2CCC(F)(F)CC2)CC1 [Example 284]
293%		COc1c(Br)ccc2c1cnn2C1CCN(C(=O)N[C@H]2CC[C@H](OC)CC2)CC1 [Example 285]
825%		Cc1c(Br)ccc2c1cnn2C1CCN(C(=O)NC2CCC(F)(F)CC2)CC1 [Example 286]
645%		CCc1c(OC)ccc2c1cnn2C1CCN(C(=O)NC2CCC(F)(F)CC2)CC1 [Example 287]
218%		CCc1c(OC)ccc2c1cnn2C1CCN(C(=O)N[C@H]2CC[C@H](OC)CC2)CC1 [Example 288]
255%		CCc1c(OC)ccc2c1cnn2C1CCN(C(=O)NC2CCOCC2)CC1 [Example 289]
1173%		O=C(NC1CCC(F)(F)CC1)N1CCC(n2ncc3cc(OC(F)F)ccc32)CC1 [Example 290]
413%		O=C(NC1CCOCC1)N1CCC(n2ncc3cc(OC(F)F)ccc32)CC1 [Example 292]
525%		CO[C@H]1CC[C@H](NC(=O)N2CCC(n3ncc4c(C)c(OC(F)F)ccc43)CC2)CC1 [Example 293]
523%		Cc1c(OC(F)F)ccc2c1cnn2C1CCN(C(=O)NC2CCOCC2)CC1 [Example 294]
340%		O=C(NC1CCOCC1)N1CCC(n2ncc3cc(C(F)(F)F)ccc32)CC1 [Example 297]
	315%	O=C(NC1CCC1)N1CCC(n2ncc3cc(C(F)(F)F)ccc32)CC1 [Example 298, N-cyclobutyl-4-[5-(trifluoromethyl)-1H-indazol-1-yl]piperidine-1-carboxamide]
302%		O=C(NC1CCC1)N1CCC(n2ncc3cc(OC(F)(F)F)ccc32)CC1 [Example 299]
	376%	O=C(NC1CCCOC1)N1CCC(n2ncc3cc(OC(F)(F)F)ccc32)CC1 (centres unmarked) [Example 300, N-(tetrahydro-2H-pyran-3-yl)-4-[5-(trifluoromethoxy)-1H-indazol-1-yl]piperidine-1-carboxamide]
1058%		COc1c(C2CC2)ccc2c1cnn2C1CCN(C(=O)NC2CCOCC2)CC1 [Example 303]
380%		O=C(NC1CCOCC1)N1CCC(n2ncc3c(OC(F)(F)F)cccc32)CC1 [Example 304]
729%		COc1ccc2c(cnn2C2CCN(C(=O)NC3CCC(F)(F)CC3)CC2)c1OC [Example 305]
147%		COc1ccc2c(cnn2C2CCN(C(=O)N[C@H]3CC[C@H](OC)CC3)CC2)c1OC [Example 306]
